# Read-outs that look alike come from different tables or passages of the source.
# Columns and labels:
# [1] = tested on: HL-60 cells; test: HL-60 cell growth/proliferation, cells counted with a hemocytometer; format: cell-based, human; details: for IC50 / activity at 1 µM / activity at 2 µM / activity at 3 µM / activity at 4 µM / activity at 5 µM: Homo sapiens; for IC50: read-out: IC50%; for cell density: starting density 2×10^5 cells/ml
# Description: (§1) Human myelocytic leukemia HL-60 cells (20-45 passages (American Type Culture Collection, Rockville, Md., accession no. CCL 240) were obtained and grown in RPMI 1640 medium (Sigma Chemical Co., St. Louis, Mo.) containing 10% fetal calf serum at 37° C. in 5% CO2 incubator at a cell density of 2×10^5 cells/mi. The cells were washed once with phosphate buffered saline (PBS) and resuspended in serum-free media containing insulin (5 mg/liter) and transferrin (5 mg/liter) for 2-3 hours before treatment with various compounds.
# HL-60 cells were treated with 3 μM of Cn-L-t-APPD with acyl chain lengths of C6, C8, C10, C12, C14, C16, and C18 (m=4, 6, 8, 10, 12, 14 and 16) in fresh ehtanol solution or with an ethanol vehicle and cell growth was determined following three days of treatment. Cell growth was quantified using a hemocytometer. Cell viability was judged by the ability to exclude trypan blue dye. Viability was always more than 80% unless otherwise described.
# HL-60 cells (starting cell density of 2×10^5 cells/ml) were treated with different concentrations of C14-L-t-APPD and cells were counted following 24 and 72 hours of treatment. The results are representative of three experiments. A 1μM dose of C14-L-t-APPD had little or no effect on cell growth at 24 or 72 hours (approximately 105% and 130% of control, respectively). A 2μM dose inhibited cell growth to approximately 65% of the control at both 24 and 72 hours. […] The IC50% was approximately 2 μM (10 fmol/cell). IC50% is the concentration of test compound that causes 50% inhibition of cell growth in comparison with controls. Thus, similar to results with C2-ceramide, C14-APPD inhibited cell proliferation at different durations of treatment.
# HL-60 cells (starting cell density of 2×10^5 cells/ml) were treated with 3 μM Cn-L-t-APPD derivatives with N-acyl chain lengths of C6, C8, C10, C12, C14, C16, and C18 (m=4,6,8,10, 12, 14, and 16) and cells were counted at 0, 12, 36, 60, 84 and 108 hours post treatment. The results are representative of 3 experiments.
# N-acyl derivatives of 2-amino-1-(4'-nitrophenyl)-1,3-propanediol (Cn-D-t-ANPPD) were tested to determine the effects of chain length on HL-60 cell growth as described in Examples 3 A. HL-60 cells (at a starting cell density of 2×10^5 cells/ml) were treated with 3 μM of the diff analogs (C6, C8, C10, C12, C14, C16 and C18) of Cn-D-t-ANPPD, and cell growth was determined at three days. The control received no Cn-D-t-ANPPD. Treatment of HL-60 cells with C2-ceramide is included for comparison.
# HL-60 cells were treated with the indicated concentrations and cell growth was determined following three days of treatment as described in Example 3B.
# The suitability of phenylaminopropanediol derivatives as analogs of ceramide allowed further investigation of the structural requirements for ceramide-mediated biology. For these experiments, C14 (N-myristoyl) derivatives of different phenylaminoalcohols were synthesized and examined for their biologic activity. HL-60 cells (starting cell density of 2×10^5 cells/ml) were treated with 3 μM of C14 derivatives C14-L-t-APPD, C14-D-t-ANPPD, C14-D-e-APP-1, C14-L-e-APP-1, C14-APP-3 and C14-D-APP3. The structures of these compounds are provided in Table I. Cell growth was determined at 3 days as described in Example 3A. The results shown are averages of two determinations, and are representative of five different experiments.
# and C14-L-e-APP-1 HL-60 cells were treated as described in Example 3B. growth was determined after 3 days of treatment.
# [2] = tested on: HL-60 cells; test: HL-60 differentiation, reduction of Nitro blue tetrazolium (NBT); format: cell-based, human; details: 3 μM, three days; for cells acquiring the ability to reduce NBT: control cells 10%
# Description: as §1
# HL-60 cells were treated with 3 μM of C14-D-e-APP-1 or 3 μM C14-L-e-APP-1 for three days in accordance with the procedure described in Example 3D. Cell differentiation was determined by the ability of differentiated cells to reduce Nitro blue tetrazolium (NBT) as described in Okazaki, T. et. al., J. Biol. Chem. 265:15823-15831 (1990).
# [3] = tested on: HL-60 cells; test: HL-60 differentiation, H2O2 generation; format: cell-based, human
# Description: as §1
# Therefore, 3 μM C14-L-t-APPD was applied to HL-60 cells either alone or in combination with subthreshold levels (0.3 nM) of 1,25-dihydroxyvitamin D3 (D3), and cell differentiation was determined at 60 and 108 hours following treatment by quantitating […] generation, a marker of HL-60 differentiation. Subthreshold levels of D3 refers to levels of D3 that are too low to induce differentiation of HL60 cells.
# H2 O2 production was quantitated as described in Goodwin, B. J. and Weinberg, J. B., J. Clin. Invest. 70:699-706 (1982) and Pick, E. and Mizel, D. J. Immunol. Methods 46: 211-226 (1981). For comparison, HL60 cell differentiation obtained with 2 μM C2-ceramide alone and 0.3 nM vitamin D3 are were also determined.
# [4] = tested on: sphingomyelin in HL-60 cells; details: previous study, Okazaki, T., et al.; cited from earlier work
# [5] = tested on: HL-60 cells; test: Uptake of [3H]-labeled compounds; format: cell-based, human; details: [3H]-labeled compound
# Description: (1R, 2S) 2-(N-[^3 H]-myristoylamino)-1-phenyl-1propanol ([^3 H] C14-L-e-APP-1) and (1S, 2R) 2-(N-[^3 H]-myristoylamino)-1-phenyl-1-propanol ([^3 H]C14-D-e-APP-1) were prepared following the general procedures of Example 1 for synthesis of N-acyl-amino alcohols using [^3 H]-myristoyl chloride. Specific activity was ~3×10^3 cpms/nmol. [^3 H] myristoyl chloride was made from 9,10-[^3 H]-myristic acid and oxalyl chloride in dry benzene.
# In studies using [^3 H]-labeled C14-D-e-APP-1 and C14-L-e-APP-1, uptake of the two compounds was nearly identical with 21% of [3 H]-C14-D-e-APP-1 taken up and 20% of [3 H]-C14-L-e-APP-1 taken up.
# [6] = tested on: HL-60 cells; details: Okazaki et al.; cited from earlier work
# [7] = tested on: HL-60 cells; details: Okazaki et al.; cited from earlier work; remark: listed apart in the source
# [8] = Example 5, 3 μM C14 derivatives, 3 days
# [9] = HL-60, 72 h, Example 5, Table IV, 3 days, read-out: CELL GROWTH (% OF CONTROL)
# [10] = HL-60, 72 h, Example 5, Table IV, 3 μM, 3 days, read-out: CELL GROWTH (% OF CONTROL)
# [11] = HL-60, 24 h, Example 3B, 24 hours, read-out: cell growth, % of control
# [12] = HL-60, 72 h, Example 3B, 72 hours, read-out: cell growth, % of control
smiles,measurement,setting,value
CCCCCCCCCCCCCC(=O)N[C@H](C)[C@@H](O)c1ccccc1 [C14-D-e-APP-1],IC50% per cell number,"[1]; Example 5, Table IV experiment, HL-60 growth, 3 days",125 fmol/10^5 cells
same,"cell growth, % of control",[1]; [8],approximately 15%
same,activity relative to reference (in words),"[1]; Example 5, 3 μM, 3 days, inhibition of cell growth",as effective as C2-ceramide
same,IC50,"[1]; 72 h, Example 5, Table IV experiment, HL-60 growth, 3 days",2500 nM
same,activity at 1 µM,[1]; [9],100%
same,activity at 2 µM,[1]; [9],71%
same,activity at 3 µM,[1]; [10],45%
same,activity at 4 µM,[1]; [9],20%
same,activity at 5 µM,[1]; [9],10%
same,cells acquiring the ability to reduce NBT,[2],42%
"C=C1/C(=C\C=C2/CCC[C@]3(C)[C@@H]([C@H](C)CCCC(C)(C)O)CC[C@@H]23)C[C@@H](O)C[C@@H]1O [1,25-dihydroxyvitamin D3, reference compound]",H2O2 generation,"[3]; 0.3 nM 1,25-dihydroxyvitamin D3, 60 hours",approximately 0.4 nmol H2O2 /10^5 cells
same,H2O2 generation,"[3]; 0.3 nM 1,25-dihydroxyvitamin D3, 108 hours",~0.2 nmol/10^5 cells
same,hydrolysis of sphingomyelin (in words),[4],caused hydrolysis of sphingomyelin in HL-60 cells
"[3H]C(CCCC)C([3H])CCCCCCCC(=O)N[C@@H](C)[C@H](O)c1ccccc1 (stereo partly drawn) [[3 H]-C14-L-e-APP-1, (1R, 2S) 2-(N-[^3 H]-myristoylamino)-1-phenyl-1propanol]",uptake,[5],20%
"[3H]C(CCCC)C([3H])CCCCCCCC(=O)N[C@H](C)[C@@H](O)c1ccccc1 (stereo partly drawn) [[3 H]-C14-D-e-APP-1, (1S, 2R) 2-(N-[^3 H]-myristoylamino)-1-phenyl-1-propanol]",uptake,[5],21%
CCCCCCCCCCCCCC(=O)N[C@@H](C)[C@H](O)c1ccccc1 [C14-L-e-APP-1],inhibition of HL-60 cell growth (in words),"[1]; Example 5, Table IV experiment, 1-5 μM, 3 days",no activity
same,"cell growth, % of control",[1]; [8],87%
same,activity at 1 µM,[1]; [9],101%
same,activity at 2 µM,[1]; [9],100%
same,activity at 3 µM,[1]; [10],99%
same,activity at 4 µM,[1]; [9],100%
same,activity at 5 µM,[1]; [9],99%
same,level of differentiation (in words),[2]; NBT reduction,little activity over control
same,cells acquiring the ability to reduce NBT,[2],12%
"CCCCCCCCCCCCCC(=O)N[C@@H](CO)[C@@H](O)c1ccccc1 [C14-L-t-APPD, N-MYRISTOYL-L-THREO-2-AMINO-1-PHENYL-1,3-PROPANDIOL]","cell growth, % of control","[1]; Example 3A, 3 μM Cn-L-t-APPD, three days",~15%
same,IC50% per cell,"[1]; Example 3B, 50% inhibition of cell growth, 2×10^5 cells/ml",approximately 10 fmol/cell
same,potency relative to C2-ceramide (in words),"[1]; Example 3C, 3 μM",equally potent to C2-ceramide
same,cell density,"[1]; Example 3C, 3 μM, 84 hours",100000 mL⁻¹
same,cell density,"[1]; Example 3C, 3 μM, 108 hours",200000 mL⁻¹
same,inhibition of cell growth (in words),"[1]; Example 3C, 3 μM, time course to 108 hours",able to inhibit cell growth by significant amounts
same,activity at 1 µM,[1]; [11],~105%
same,activity at 2 µM,[1]; [11],~65%
same,activity at 3 µM,"[1]; HL-60, 24 h, Example 3B, 3 μM, 24 hours, read-out: cell growth, % of control",< 10%
same,activity at 4 µM,[1]; [11],< 10%
same,activity at 1 µM,[1]; [12],~130%
same,activity at 2 µM,[1]; [12],~65%
same,activity at 3 µM,"[1]; HL-60, 72 h, Example 3B, 3 μM, 72 hours, read-out: cell growth, % of control",< 10%
same,activity at 4 µM,[1]; [12],< 10%
same,IC50,"[1]; HL-60, Example 3B, 50% inhibition of cell growth, 2×10^5 cells/ml, 24 and 72 hours",~2000 nM
same,effect of combination on cell differentiation (in words),"[3]; 3 μM C14-L-t-APPD + 0.3 nM 1,25-dihydroxyvitamin D3",synergistic effect on cell differentiation
same,"H2O2 generation, combination","[3]; 3 μM C14-L-t-APPD + 0.3 nM 1,25-dihydroxyvitamin D3, 60 hours",approximately 1.1 nmol H2O2 /10^5 cells
same,"H2O2 generation, combination","[3]; 3 μM C14-L-t-APPD + 0.3 nM 1,25-dihydroxyvitamin D3, 108 hours",~1.0 nmol H2O2 /10^5 cells
same,H2O2 generation,"[3]; 3 μM C14-L-t-APPD alone, 60 hours",approximately 0.3 nmol/10^5 cells
same,H2O2 generation,"[3]; 3 μM C14-L-t-APPD alone, 108 hours",~0.5 nmol/10^5 cells
same,effect on differentiation relative to C2-ceramide (in words),[3]; 3 μM C14-L-t-APPD vs 2 μM C2-ceramide,nearly identical to those of 2 μM C2-ceramide
"CCCCCCCCCCCCC/C=C/[C@@H](O)[C@H](CO)NC(C)=O [C2-ceramide, N-acetyl-C18-sphingosine, reference compound]",cell density,"[1]; Example 3C, C2-ceramide, concentration not given, 108 hours",200000 mL⁻¹
same,CELL GROWTH (% OF CONTROL),"[1]; Example 4A, Table II, 3 μM Cn-D-t-ANPPD (C2-ceramide concentration not given), three days",20 % OF CONTROL
same,"cell growth, % of control",[1]; [8],20%
same,H2O2 generation,"[3]; 2 μM C2-ceramide alone, 60 hours",approximately 0.3 nmol H2O2 /10^5 cells
same,H2O2 generation,"[3]; 2 μM C2-ceramide alone, 108 hours",approximately 0.3 nmol H2O2 /10^5 cells
same,"H2O2 generation, combination","[3]; 2 μM C2-ceramide in combination with 1,25-dihydroxyvitamin D3",approximately 0.9 nmol/10^5 cells
"CCCCCCCCCCCCC/C=C/[C@@H](O)[C@@H](N)CO [sphingosine, Sphingosine]",HL-60 cell growth (in words),[6],inhibit HL-60 cell growth
same,HL-60 cell differentiation (in words),[7],do not mimic the effects of ceramide on cell differentiation
